The nature of test [1]: Inhibition of AgrC-2 in Staphylococcus aureus RN9372 incubated for 60 to 90 mins in presence of AIP agonist by beta-lactamase reporter gene assay. In general terms: A reporter such as luciferase makes a cellular process visible.
Test [2] relates to Staphylococcus aureus. Nature of the test: Agonist activity at AgrC-4 in Staphylococcus aureus RN9371 incubated for 60 to 90 mins by beta-lactamase reporter gene assay.
Test [3] in a line: Agonist activity at AgrC-3 in Staphylococcus aureus incubated for 60 to 90 mins in presence of AIP agonist by beta-lactamase reporter gene assay.
Test [4] concerns Staphylococcus aureus. Nature of the test: Agonist activity at AgrC-1 in Staphylococcus aureus RN9222 incubated for 60 to 90 mins by beta-lactamase reporter gene assay.
The nature of test [5]: Inhibition of AgrC-1 in Staphylococcus aureus.
The nature of test [6]: Inhibition of AgrC-1 in Staphylococcus aureus AH1677 incubated for 24 hrs by fluorescence assay.
The nature of test [7]: Inhibition of AgrC-4 in Staphylococcus aureus.
The nature of test [8]: Inhibition of AgrC-2 in Staphylococcus aureus AH430 incubated for 24 hrs by fluorescence assay.
Test [9] can be described thus: Inhibition of AgrC-3 in Staphylococcus aureus.
Test [10] in a line: Inhibition of AgrC-2 in Staphylococcus aureus.
Test [11] in a line: Inhibition of AgrC-3 in Staphylococcus aureus AH1747 incubated for 24 hrs by fluorescence assay.
Test [12] is described as follows: Inhibition of AgrC-4 in Staphylococcus aureus AH1872 incubated for 24 hrs by fluorescence assay.
A short description of test [13]: Inhibition of AgrC-1 Staphylococcus epidermidis AH3408 incubated for 24 hrs by fluorescence assay.
Test [14] concerns the target T1, Chloramphenicol acetyltransferase (Staphylococcus epidermidis) (UniProt D2JCN2).
T1 sequence (whole entry): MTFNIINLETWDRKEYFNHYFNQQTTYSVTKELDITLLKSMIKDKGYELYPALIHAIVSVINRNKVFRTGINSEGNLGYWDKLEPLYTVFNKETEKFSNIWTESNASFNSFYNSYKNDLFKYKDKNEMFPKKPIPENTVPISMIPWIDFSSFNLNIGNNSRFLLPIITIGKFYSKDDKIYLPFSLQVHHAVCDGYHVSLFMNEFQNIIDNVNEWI
Nature of the test: Activation of Chloramphenicol acetyltransferase activity in Staphylococcus epidermidis Tu3298 at 200 nM and measured every 15 sec for 20 mins (reference value: 12.5 U/mg).

Test [15] is described as follows: Inhibition of AgrC-2 in Staphylococcus aureus RN9532 by beta-lactamase reporter gene assay.
Test [16] in a line: Inhibition of AgrC-2 in Staphylococcus aureus RN9372 by beta-lactamase reporter gene assay.
The nature of test [17]: Agonist activity at AgrC-4 in Staphylococcus aureus RN9371 by beta-lactamase reporter gene assay.
A short description of test [18]: Inhibition of AgrC-1 Staphylococcus aureus RN10829 incubated for 45 mins by beta-lactamase reporter gene assay.
For test [19], the target named is T2, Receptor-histidine kinase AgrC (Staphylococcus aureus, UniProt O07911).
T2 sequence (O07911 whole entry): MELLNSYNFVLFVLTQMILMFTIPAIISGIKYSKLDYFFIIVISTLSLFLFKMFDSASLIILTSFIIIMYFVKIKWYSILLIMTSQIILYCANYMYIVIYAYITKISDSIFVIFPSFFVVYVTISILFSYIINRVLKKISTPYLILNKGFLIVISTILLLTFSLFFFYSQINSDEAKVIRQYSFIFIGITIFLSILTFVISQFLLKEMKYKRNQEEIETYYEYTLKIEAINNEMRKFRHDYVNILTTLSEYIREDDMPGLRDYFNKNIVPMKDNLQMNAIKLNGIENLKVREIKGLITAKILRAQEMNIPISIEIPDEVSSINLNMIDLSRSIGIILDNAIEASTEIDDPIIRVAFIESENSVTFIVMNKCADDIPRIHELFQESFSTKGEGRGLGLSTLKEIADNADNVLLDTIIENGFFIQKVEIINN
In words: Inhibition of AgrC in mid-exponential phase Staphylococcus aureus RN6390B assessed as beta-lactamase activity incubated for 80 mins by spectrophotometric method.

The nature of test [20]: Inhibition of AgrC-2 Staphylococcus aureus SA564 by agr-blaZ reporter gene assay.
Test [21] can be described thus: Inhibition of AgrC-1 Staphylococcus aureus RN6390B by agr-blaZ reporter gene assay.

Where a SMILES comes first, the peptide text is derived from it. Bridges are numbered along the chain shown (N, C = ends). [ ]: non-standard residue; d: D form. The star is where a group is joined. 6FAM = O=C1OC2(c3ccc(O)cc3Oc3cc(O)ccc32)c2cc(C(=O)*)ccc21; Biotin = O=C1N[C@H]2[C@H](CS[C@H]2CCCCC(=O)*)N1; X2 = O=C(c1ccccc1)c1ccc(OCCCC(=O)*)cc1; X1 = O=C(CCCOc1ccc(Cc2ccccc2)cc1)*; Dap = NC[C@H](N)C(=O)O Some results are limits rather than exact numbers.

As usually defined, the IC50 is the midpoint of a concentration-inhibition curve. Consider `CC[C@H](C)[C@@H]1NC(=O)[C@H](Cc2ccccc2)NC(=O)[C@H](Cc2ccc(O)cc2)NC(=O)[C@@H](NC(=O)[C@@H](NC(=O)[C@H](CO)NC(=O)[C@@H](N)Cc2ccc(O)cc2)[C@@H](C)O)CSC(=O)[C@H](CCSC)NC1=O` (H-YSTCYFIM; thioester 4-C), for which the IC50 in test [1] amounted to 4 nM; in [3], 1 nM. The ED50 in the test on Staphylococcus aureus [2] came out at 13 nM; in the test on Staphylococcus aureus [4], 62 nM.

For the compound `CC[C@@H](C)[C@H](NC(C)=O)C(=O)N[C@H](CC(N)=O)C(=O)N[C@@H]1CSC(=O)[C@@H](Cc2ccccc2)NC(=O)[C@@H](CC(C)C)NC(=O)[C@@H](CC(C)C)NC(=O)[C@@H](C)NC1=O`, the half-maximal inhibitory concentration (IC50) in [5] is 0.5 nM; in [6], 0.485 to 2.9 nM; in test [7], 0.03 nM; in test [8], 0.429 to 3.5 nM; in [9], 0.05 nM; in test [10] it was 0.4 nM. Besides, the IC50 lay in the range of 0.0506 to 0.35 nM in test [11] and 0.0349 to 0.75 nM in [12].

In the case of `CC[C@H](C)[C@H]1NC(=O)[C@@H](Cc2ccccc2)NC(=O)[C@@H](C)NC(=O)[C@H](NC(C)=O)CSC(=O)[C@@H](CCSC)NC1=O`, the IC50 was 5 nM in test [5], 5 nM in test [7], 0.1 nM in [9] and 5 nM in test [10].

Turning to `CC[C@@H](C)[C@H](N)C(=O)N[C@H](CC(N)=O)C(=O)N(C)[C@@H]1CSC(=O)[C@@H](CC(C)C)N(C)C(=O)[C@@H](CC(C)C)NC(=O)CN(Cc2ccccc2)C(=O)[C@@H](CC(=O)O)NC1=O`, the figures for the IC50 in [5], in test [7] and in [10] were 4.49 nM, 6.59 nM and 1.95 nM, respectively.

As to `C[C@H](N)C(=O)N[C@@H](CO)C(=O)N[C@@H](C)C(=O)N[C@H]1CSC(=O)[C@H](Cc2ccccc2)NC(=O)[C@H](Cc2ccc(O)cc2)NC(=O)[C@H](C)NC(=O)[C@H](C)NC1=O` (H-ASACAAYF; thioester 4-C), half-maximal inhibition in test [13] (IC50) was put at 2.84 nM.

For `CC[C@H](C)[C@@H]1NC(=O)[C@H](Cc2ccccc2)NC(=O)[C@H](CC(=O)O)NC(=O)[C@@H](NC(=O)[C@@H](NC(=O)[C@H](CO)NC(=O)[C@H](Cc2ccc(O)cc2)NC(=O)CCCC[C@@H]2SC[C@@H]3NC(=O)N[C@@H]32)[C@@H](C)O)CSC(=O)[C@H](CCSC)NC1=O` (Biotin-YSTCDFIM; thioester 4-C), the IC50 in [1] was 40 nM.

For `CC(C)C[C@@H]1NC(=O)[C@H](Cc2ccc(O)cc2)NC(=O)[C@H](CC(N)=O)NC(=O)[C@H](CO)NC(=O)[C@@H](NC(=O)[C@@H]2CCCN2C(=O)[C@H](CC(N)=O)NC(=O)[C@H](Cc2ccc(O)cc2)NC(=O)[C@H](CCCCN)NC(=O)[C@H](CO)NC(=O)[C@H](C)NC(=O)[C@@H](N)CC(N)=O)CSC1=O` (H-NASKYNPCSNYL; thioester 8-C), the IC50 in test [13] worked out at 9.64 nM.

For the compound `CC[C@H](C)[C@H](NC(=O)c1ccc2c(c1)C1(OC2=O)c2ccc(O)cc2Oc2cc(O)ccc21)C(=O)N[C@@H](CC(N)=O)C(=O)N[C@H]1CSC(=O)[C@H](CC(C)C)NC(=O)[C@H](CC(C)C)NC(=O)[C@H](Cc2ccccc2)NC(=O)[C@H](C)NC1=O` (6FAM-INCAFLL; thioester 3-C), the concentration for half-maximal inhibition (IC50) in test [1] came out at 22 nM.

Regarding `CC(C)[C@H](NC(=O)[C@H](CO)NC(=O)[C@@H](N)CC(=O)O)C(=O)N[C@H]1CSC(=O)[C@H](Cc2ccccc2)NC(=O)[C@H](Cc2ccc(O)cc2)NC(=O)[C@H](CO)NC(=O)[C@H](C)NC1=O` (H-DSVCASYF; thioester 4-C), the Activity in test [14] stood at 53.3 U/mg. Further, the IC50 in test [15] is 13 nM; in [16], over 1000 nM; in [17], over 1000 nM.

Compound `CC(=O)N[C@H]1CSC(=O)[C@@H](CC(C)C)NC(=O)[C@@H](CC(C)C)NC(=O)[C@@H](Cc2ccccc2)NC(=O)[C@@H](CC(=O)O)NC1=O` showed an IC50 in [18] of 16.8 nM.

As to `CC(C)C[C@@H]1NC(=O)[C@H](CO)NC(=O)[C@H](CO)NC(=O)[C@@H](NC(=O)[C@H](C)NC(=O)[C@H](CC(N)=O)NC(=O)[C@@H](NC(=O)CN)C(C)C)CNC(=O)[C@H](Cc2ccccc2)NC1=O` (H-GVNA[Dap]SSLF; lactam 5-C), the IC50 in test [19] was under 1 nM.

Take `CC[C@H](C)[C@@H]1NC(=O)[C@H](Cc2ccccc2)NC(=O)[C@H](C)NC(=O)[C@@H](NC(=O)[C@@H](NC(=O)[C@H](CO)NC(=O)CCCOc2ccc(C(=O)c3ccccc3)cc2)[C@@H](C)O)CSC(=O)[C@H](CCSC)NC1=O` (X2-STCAFIM; thioester 3-C): the IC50 in [20] is 4 nM; in [21], 21 nM.

In [13], `C[C@H](N)C(=O)N[C@@H](CO)C(=O)N[C@@H](C)C(=O)N[C@H]1CSC(=O)[C@H](Cc2ccccc2)NC(=O)[C@H](Cc2ccc(O)cc2)NC(=O)[C@H](C)NC(=O)[C@H](CO)NC1=O` (H-ASACSAYF; thioester 4-C) gave an IC50 of 2.08 nM.

For the compound `CC[C@H](C)[C@H](NC(=O)[C@@H](N)CC(=O)O)C(=O)N[C@H]1CSC(=O)[C@H](Cc2ccccc2)NC(=O)[C@H](Cc2ccc(O)cc2)NC(=O)[C@H](C)NC(=O)[C@H](CC(N)=O)NC1=O` (H-DICNAYF; thioester 3-C), the IC50 in test [15] is 36.6 nM; in test [16], 419 nM; in test [17], over 1000 nM.

Take `CC[C@H](C)[C@H]1NC(=O)[C@@H](Cc2ccccc2)NC(=O)[C@@H](C)NC(=O)[C@H](NC(=O)[C@H](NC(=O)[C@@H](CO)NC(=O)[C@H](N)Cc2ccc(O)cc2)[C@@H](C)O)CSC(=O)[C@@H](CCSC)NC1=O`: the IC50 is 5 to 303 nM in test [5], 3 nM in [7], 0.3 nM in test [9] and 8 to 18 nM in test [10].

Take `CC(C)C[C@@H]1NC(=O)[C@H](CO)NC(=O)[C@H](CO)NC(=O)[C@@H](NC(=O)[C@H](C)NC(=O)[C@H](CC(N)=O)NC(=O)[C@@H](NC(=O)CN)C(C)C)COC(=O)[C@H](Cc2ccccc2)NC1=O` (H-GVNASSSLF; ester 5-C): the IC50 in test [19] worked out at 7.9 nM.

In the case of `CC[C@H](C)[C@@H]1NC(=O)[C@H](Cc2ccccc2)NC(=O)[C@H](C)NC(=O)[C@@H](NC(=O)[C@@H](NC(=O)[C@H](CO)NC(=O)CCCOc2ccc(Cc3ccccc3)cc2)[C@@H](C)O)CSC(=O)[C@H](CCSC)NC1=O` (X1-STCAFIM; thioester 3-C), the IC50 in test [20] amounted to 19 nM; in test [21] it was 295 nM.

Turning to `CC[C@@H](C)[C@H](N)C(=O)N[C@H](CC(N)=O)C(=O)N(C)[C@@H]1CSC(=O)[C@@H](CC(C)C)N(C)C(=O)[C@@H](CC(C)C)NC(=O)[C@@H](Cc2ccccc2)NC(=O)[C@@H](CC(=O)O)NC1=O`, the IC50 in test [5] amounted to 137 nM; in test [7] it was 106 nM; in test [10] it was 134 nM.

For `CC(C)C[C@@H]1NC(=O)[C@H](Cc2ccc(O)cc2)NC(=O)[C@H](CO)NC(=O)[C@H](C)NC(=O)[C@@H](NC(=O)[C@@H]2CCCN2C(=O)[C@H](CC(N)=O)NC(=O)[C@H](Cc2ccc(O)cc2)NC(=O)[C@H](CCCCN)NC(=O)[C@H](C)NC(=O)[C@H](C)NC(=O)[C@@H](N)CC(N)=O)CSC1=O` (H-NAAKYNPCASYL; thioester 8-C), in test [13], the IC50 amounted to 34.3 nM.

`CC(C)C[C@H]1NC(=O)[C@@H](Cc2ccccc2)NC(=O)[C@@H](CC(=O)O)NC(=O)[C@@H](NC(=O)[C@@H](Cc2ccccc2)NC(=O)[C@@H]2CCCN2C(=O)[C@H](N)Cc2ccc(O)cc2)CSC(=O)[C@@H](CC(C)C)NC1=O` registered an IC50 in test [18] of 0.31 nM.
